Laboratory results reported in patent US9000033B2, “Composition for improving skin condition and appearance” (Arch Personal Care Products, L.P., priority 2008, dated 2015).

Assays:
ELN (elastin gene) = assay: Human gene microarray, Elastin gene expression in normal human dermal fibroblasts; assay type: cell-based; details: for expression levels of elastin gene: an appropriate amount
Method: (§1) Normal human dermal fibroblasts were grown in culture flasks until confluent using appropriate culture conditions. […] A separate flask of cells was treated with culture media alone and acted as an untreated control. After applying the test material the cells the cells were incubated for 24 hours at 37±2° C. and 5±1% CO2. At the end of the incubation period the culture media was removed via aspiration and the cells were washed once with cold phosphate buffered saline. After removing the wash the cells they were lysed by adding 700 μl of guanidinium thiocyanate lysis solution. The cell lysate was stored at −75° C. until the RNA extraction process could be completed (see below).
(§2) To the cell lysates prepared above, an equal volume of 64% ethanol was added and the tubes were vortexed. After combining, up to 700 μl of the mixture was transferred to a glass fiber filter cartridge, and the cartridge was loaded into a 1.5 ml collection tube and the cartridge was centrifuged for 1 minute at 14,000 RPM. The flow through was discarded and any remaining mixture was loaded into the filter cartridge and the centrifugation process was repeated until all of the mixture had been processed. The filter was then washed to remove any residual cellular debris from the RNA bound to the glass fibers by subsequently applying 700 μl of wash solution 1 (1 time) and 500 μl of wash solution 2 (2 times) to the filter cartridge and centrifuging at 14,000 RPM for 1 minute to pass each wash through the cartridge. After each wash the flowthrough was discarded. After the final wash one final spin was performed without wash solution to remove any residual wash solution in the filter cartridge. The RNA bound to the glass fibers within the cartridge was eluted by applying 30 μl of Tris-EDTA buffer (10 mM Tris-HCl, 1 mM EDTA, preheated to 70-80° C.) to the cartridge and centrifuging the cartridge in a new collection tube at 14,000 RPM for one minute. The elution process was repeated with an additional 30 μl of preheated TE buffer. After the RNA was eluted its concentration was quantified using a Ribogreen assay.
(§3) mRNA Amplification (Ambion MessageAmnp aRNA kit) First Strand cDNA Synthesis: To start the first strand synthesis, 5 μg of total RNA for each sample was added to 600 μl PCR tubes and the total volume of liquid in the tube was adjusted to 12 μl with DEPC H2O. To each tube, 1 μl of T7 Oligo(dT) primer was added and the tube was incubated at 70±2° C. for 10 minutes to denature the RNA and then placed on ice to allow the primer to anneal to the poly A ends of the mRNA. After cooling 2 μl of 10× first strand buffer, 1 μl of RNAse inhibitor and 4 μl of dNTP Mix were added to each tube, and each tube was placed at 42° C. 1 μl of Reverse Transcriptase was added and the tubes were heated and maintained at 42±2° C. for 2 hours. […]
(§4) Second Strand Synthesis and cDNA Purification: For the synthesis of the second strand of cDNA the following items were added to the tubes above (in this order): 63 μl DEPC H2O, 10 μl 10× second strand buffer, 4 μl dNTP mix, 2 μl DNA Polymerase and 1 μl of RNAse H. The tube was mixed and then incubated at 16±2° C. for 2 hours. Towards the end of the 2 hour incubation a sufficient quantity of DEPC H2O was warmed to 50±2° C. and a cDNA purification filter cartridge was equilibrated with 50 μl of cDNA binding buffer (one cartridge per sample) for at least 5 minutes. […]

[1] = system: COL1A1 (collagen 1A1 gene); assay: Human gene microarray, Type 1A1 Collagen gene expression in normal human dermal fibroblasts; assay type: cell-based; details: for expression levels of collagen 1A1 gene: an appropriate amount
Method: as §1, §2, §3, §4

[2] = concentration from 0.0001 to 0.05%
[3] = normal human dermal fibroblasts, 0.05%
[4] = normal human dermal fibroblasts, 0.05% pomiferin, 24 hours, fluorescence intensity, Cy5 (treated) channel

CC(C)=CCc1c2c(c3occ(-c4ccc(O)cc4)c(=O)c3c1O)C=CC(C)(C)O2 [osajin]
expression levels of elastin gene (ELN (elastin gene)): significantly increase | expression levels of collagen 1A1 gene [1]: significantly increase

CC(C)=CCc1c2c(c3occ(-c4ccc(O)c(O)c4)c(=O)c3c1O)C=CC(C)(C)O2 [pomiferin]
expression levels of elastin gene (ELN (elastin gene)): significantly increase | increasing elastin gene expression (ELN (elastin gene); [2]): equally effective | elastin gene expression compared to untreated cells (ELN (elastin gene); [3]): statistically significant increase | F635 Median, ELN (ELN (elastin gene); [4]): 3010 | expression levels of collagen 1A1 gene [1]: significantly increase | increasing collagen 1A1 gene expression [1, 2]: equally effective | collagen 1A1 gene expression compared to untreated cells [1, 3]: statistically significant increase | F635 Median, COL1A1 [1, 4]: 38576
